According to patent US20140134658A1, “PSA ENZYMATIC ACTIVITY: A NEW BIOMARKER FOR ASSESSING PROSTATE CANCER AGGRESSIVENESS” (NORTHWESTERN UNIVERSITY, AN ILLINOIS NOT FOR PROFIT …, priority 2010, published 2014):

Legend:
[1] = tested on: esterases; assay: Sacrificial ester control for esterases in a urine sample with peptide substrate; type: biochemical; conditions: urine sample + peptide substrate 0.4 mM, with and without ester 40 mM; single experiment
Experimental: This was tested by running a urine sample (+peptide substrate; 0.4 mM) with and without a “sacrificial ester” (alanine methyl ester; 40 mM). The idea is that if there are esterases in the sample, adding a relatively high concentration of ester will prevent them from cleaving the peptide substrate and we should therefore see a higher turnover of substrate.

[2] = target: T1, PSA (Homo sapiens, UniProt P07288); assay: Optical (fluorogenic) assay of peptide substrate cleavage by PSA; type: biochemical; conditions: fluorogenic AMC-labelled substrate, 0.4 mM in buffer A
T1 construct: purchased Scripps Laboratories
Experimental: Serial dilution of PSA (reagent #5)+substrate
The desired clinical urine samples were thawed at room temperature, gently vortexed, and briefly centrifuged (<20 seconds) to accumulate sample at the bottom of the tube. Each 50 μL sample was transferred via pipette to the 96-well microplate. The PSA standards (20 μL) were prepared and loaded in the same way. A multichannel pipette was used to transfer the substrate (150 μL) one column at a time and the start time recorded. Once the entire plate was loaded, it was inserted into the microplate reader and analyzed every 10 min. for 2-12 hrs.
Serial dilution of AMC (reagent #6) to determine linear fluorescence range: Reagent #6 (35.9 μL) was diluted to 2.0 mL buffer A to give a concentration of 0.4 mM. A 1:2 dilution was performed to give a final concentration range of 0.4 mM-0.024 uM. This was loaded into a 96-well microplate in duplicate and scanned one time. Serial dilution of PSA (reagent #5)+substrate: 20 μL of each standard PSA standard solution (see general procedure for protein dilution above) was loaded in duplicate into a 96-well microplate followed by 150 μL of peptide substrate in buffer A (see general procedure above) and scanned for at least 3 hrs. Serial dilution of α-Chymotrypsin (reagent #8)+substrate: Same as experiment 2 but with reagent #8. […]

T1 sequence (P07288 25-261): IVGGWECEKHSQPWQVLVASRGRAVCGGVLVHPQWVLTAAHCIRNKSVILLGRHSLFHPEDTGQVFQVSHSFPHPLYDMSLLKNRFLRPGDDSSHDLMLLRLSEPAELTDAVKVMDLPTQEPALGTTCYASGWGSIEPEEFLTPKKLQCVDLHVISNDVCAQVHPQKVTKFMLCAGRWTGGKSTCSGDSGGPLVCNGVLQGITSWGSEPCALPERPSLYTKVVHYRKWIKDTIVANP

Q: For `COC(=O)[C@H](C)N` [alanine methyl ester], which “effect of sacrificial ester on turnover of peptide substrate” value [1] is on record?
A: The value was “no difference between the sample run with ester and that run without ester”.

Q: With Mor-HSSK-Hic-Q-AMC as the compound, how does the “cleavage of substrate by PSA” value [2] read?
A: Its value is “show cleavage by PSA”.

Q: Which “cleavage of substrate by PSA” value [2] does the source give for Mor-HSSK-Hiv-Q-AMC here?
A: The value was “show cleavage by PSA”.
